Reference: EPA's ToxValDB 9.5

Key:
Mus musculus = details: oral
Rattus norvegicus = details: acute, inhalation
[1] = short-term, duration: 13 days, drinking water, F, C57BL/6, spleen: spleen CD8+ cells
[2] = short-term, duration: 14 days, gavage, M, BALB/c, relative mRNA expression of IL-1beta in spleen + thymus: apoptosis in thymus cells
[3] = short-term, duration: 14 days, gavage, M, BALB/c, relative mRNA expression of IL-1beta in thymus + spleen: apoptosis in spleen cells
[4] = short-term, duration: 14 days, gavage, M, Kunming, COX-2 in liver tissue
[5] = short-term, duration: 14 days, gavage, M, Kunming, CRP in liver tissue + liver: IL-6 levels
[6] = short-term, duration: 15 days, drinking water, F, C57BL/6, IgG antibody titer (SRBC) + IgM antibody titer (SRBC) + spleen: spleen: absolute weight + spleen: spleen: relative weight
[7] = short-term, duration: 15 days, drinking water, F, C57BL/6, IgM antibody titer (DNP)
[8] = short-term, duration: 15 days, drinking water, F, C57BL/6, IgM antibody titer (SRBC) + spleen: spleen: relative weight
[9] = short-term, duration: 15 days, drinking water, F, C57BL/6, spleen: spleen: absolute weight + spleen: spleen: relative weight + thymus: thymus: absolute weight + thymus: thymus: relative weight
[10] = short-term, duration: 15 days, drinking water, F, IgM antibody titer (SRBC)
[11] = short-term, duration: 21 days, drinking water, M, ICR, cytokine mRNA for IL-1 beta in spleen (relative to beta-actin) + expression of c-myc in thymus (relative to beta-actin) + mean body weight…
[12] = short-term, duration: 21 days, drinking water, M, ICR, cytokine mRNA for IL-6 in spleen (relative to beta-actin) + cytokine mRNA for TNF-alpha in spleen (relative to beta-actin) + expression of c…
[13] = short-term, duration: 28 days, gavage, M, BALB/c, testes: TNFa in testes
[14] = short-term, duration: 29 days, gavage, M, Crl:CD-1 (ICR) BR, IgM antibody titer (SRBC) + mean serum corticosterone + spleen: spleen: absolute weight + spleen: total number of splenocytes + thymus: …
[15] = short-term, duration: 29 days, gavage, M, Crl:CD-1 (ICR) BR, spleen: spleen: relative weight
[16] = subchronic, duration: 6 weeks, gavage, M, 129/SV, relative mRNA expression of TNF alpha/GAPDH in liver
[17] = subchronic, duration: 6 weeks, gavage, M, relative mRNA expression of TNF alpha/GAPDH in liver
[18] = duration: 4 hours, M, CD, Ocular: Corneal opacity and corrosion

`O=C([O-])C(F)(F)C(F)(F)C(F)(F)C(F)(F)C(F)(F)C(F)(F)C(F)(F)F.[NH4+]` [Ammonium perfluorooctanoate] gave an NOEL (Mus musculus; short-term, duration: 10 days, drinking water, F, C57BL/6, spleen B220+ cells + spleen: spleen CD4+ cells + spleen: spleen CD8+ cells + spleen: spleen cellularity + spleen: spleen DN (CD4-/CD8-) …) of 7.5 mg/kg-day, an NOEL (Mus musculus; short-term, duration: 10 days, gavage, F, C57BL/6, IgG antibody titer (SRBC) + spleen: spleen: absolute weight + spleen: spleen: relative weight + thymus: thymus: absolute weight + thymus: …) of 30 mg/kg-day and an LOEL (Mus musculus; short-term, duration: 10 days, gavage, F, C57BL/6, IgM antibody titer (SRBC) + spleen: spleen: absolute weight + spleen: spleen: relative weight + thymus: thymus: absolute weight + thymus: …) of 30 mg/kg-day. The NOEL (Mus musculus; short-term, duration: 13 days, drinking water, F, C57BL/6, spleen: spleen B220+ cells + spleen: spleen CD4+ cells + spleen: spleen cellularity + spleen: spleen DP (CD4+/CD8+) cells + spleen: spleen …) was 7.5 mg/kg-day, the LOEL (Mus musculus; [1]) was 7.5 mg/kg-day and the NOEL (Mus musculus; [1]) was 3.75 mg/kg-day. It also gave an LOEL (Mus musculus; short-term, duration: 13 days, drinking water, F, C57BL/6, spleen: spleen DN (CD4-/CD8-) cells) of 3.75 mg/kg-day, an LOEL (Mus musculus; short-term, duration: 14 days, gavage, M, BALB/c, change in body weight + spleen: apoptosis in spleen cells + spleen: spleen: relative weight + thymus: thymus: relative weight) of 5 mg/kg-day and an NOEL (Mus musculus; short-term, duration: 14 days, gavage, M, BALB/c, relative mRNA expression of IL-1beta in spleen + relative mRNA expression of IL-1beta in thymus) of 20 mg/kg-day. It also gave an LOEL (Mus musculus; [2]) of 10 mg/kg-day, an NOEL (Mus musculus; [2]) of 5 mg/kg-day and an LOEL (Mus musculus; [3]) of 20 mg/kg-day. For the same compound, the NOEL (Mus musculus; [3]) was 10 mg/kg-day, the LOEL (Mus musculus; [4]) was 5 mg/kg-day and the NOEL (Mus musculus; [4]) was 2.5 mg/kg-day. The LOEL (Mus musculus; [5]) was 10 mg/kg-day, the NOEL (Mus musculus; [5]) was 5 mg/kg-day and the LOEL (Mus musculus; short-term, duration: 14 days, gavage, M, Kunming, liver: Cox-2 levels + liver: CRP levels + liver: IL-6 levels) was 10 mg/kg-day. The LOEL (Mus musculus; short-term, duration: 14 days, gavage, M, Kunming, liver: IL-6 levels + liver: TNF-alpha levels) was 10 mg/kg-day, the LOEL (Mus musculus; [6]) was 25 mg/L and the NOEL (Mus musculus; [6]) was 12.5 mg/L. The LOEL (Mus musculus; [7]) was 1.88 mg/kg-day, the NOEL (Mus musculus; [7]) was 0.94 mg/kg-day and the LOEL (Mus musculus; [8]) was 30 mg/kg-day. The NOEL (Mus musculus; [8]) was 7.5 mg/kg-day, the NOEL (Mus musculus; short-term, duration: 15 days, drinking water, F, C57BL/6, spleen: spleen B220+ cells + spleen: spleen cellularity + spleen: spleen DN (CD4-/CD8-) cells + spleen: spleen DP (CD4+/CD8+) cells) was 7.5 mg/kg-day and the LOEL (Mus musculus; short-term, duration: 15 days, drinking water, F, C57BL/6, spleen: spleen CD4+ cells + spleen: spleen CD8+ cells + spleen: spleen NK 1.1 cells) was 3.75 mg/kg-day. It also gave an LOEL (Mus musculus; [9]) of 100 mg/L, an NOEL (Mus musculus; [9]) of 50 mg/L and an NOEL (Mus musculus; short-term, duration: 15 days, drinking water, F, C57BL/6, spleen: spleen: absolute weight + spleen: spleen: relative weight + thymus: thymus: relative weight) of 200 mg/L. It also gave an LOEL (Mus musculus; short-term, duration: 15 days, drinking water, F, C57BL/6, thymus: thymus: relative weight) of 7.5 mg/kg-day, an LOEL (Mus musculus; [10]) of 30 mg/kg-day and an NOEL (Mus musculus; [10]) of 7.5 mg/kg-day. For the same compound, the NOEL (Mus musculus; short-term, duration: 15 days, drinking water, F, spleen: spleen: relative weight + thymus: thymus: relative weight) was 30 mg/kg-day, the NOEL (Mus musculus; short-term, duration: 15 days, gavage, F, C57BL/6, IgG antibody titer (SRBC) + spleen: spleen: absolute weight + spleen: spleen: relative weight + thymus: thymus: absolute weight + thymus: …) was 30 mg/kg-day and the LOEL (Mus musculus; short-term, duration: 15 days, gavage, F, C57BL/6, IgM antibody titer (SRBC) + spleen: spleen: absolute weight + spleen: spleen: relative weight + thymus: thymus: absolute weight + thymus: …) was 30 mg/kg-day. For the same compound, the NOEL (Mus musculus; short-term, duration: 16 days, diet, M, C57BL/6, - HRBC IgG1: 160 reciprocal serum dilution + - HRBC IgG1: 320 reciprocal serum dilution + - HRBC IgG1: 40 reciprocal serum dilution + - HRBC…) was 0.02%, the LOEL (Mus musculus; short-term, duration: 16 days, diet, M, C57BL/6, IgG1 antibody-producing cells (HRBC) + IgG2b antibody-producing cells (HRBC) + IgG3 antibody-producing cells (HRBC) + IgM antibody-producing…) was 200 mg/kg-day and the LOEL (Mus musculus; short-term, duration: 16 days, diet, M, C57BL/6, IgG1 antibody-secreting cells (HRBC) + IgG1 antibody level (HRBC 1:160) + IgG1 antibody level (HRBC 1:20) + IgG1 antibody level (HRBC 1:80…) was 0.02%. For the same compound, the LOEL (Mus musculus; [11]) was 17.6 mg/kg-day, the NOEL (Mus musculus; [11]) was 2.64 mg/kg-day and the LOEL (Mus musculus; [12]) was 47.2 mg/kg-day. The NOEL (Mus musculus; [12]) was 17.6 mg/kg-day, the NOEL (Mus musculus; short-term, duration: 21 days, drinking water, M, ICR, cytokine mRNA for IL-6 in thymus (relative to beta-actin) + cytokine mRNA for TNF-alpha in thymus (relative to beta-actin) + cytokine mRNA …) was 47.2 mg/kg-day and the LOEL (Mus musculus; short-term, duration: 21 days, drinking water, M, ICR, spleen: spleen CD8+ cells + spleen: spleen DN (CD4-CD8-) cells + spleen: spleen DP (CD4+CD8+) cells) was 0.49 mg/kg-day. It also gave an LOEL (Mus musculus; short-term, duration: 23 days, gavage, M, Crl:CD-1 (ICR) BR, IgM antibody titer (SRBC) + spleen: spleen: absolute weight + spleen: spleen: relative weight + spleen: total number of splenocytes + thymus…) of 30 mg/kg-day, an NOEL (Mus musculus; short-term, duration: 23 days, gavage, M, Crl:CD-1 (ICR) BR, mean serum corticosterone + spleen: incidence of spleen hematopoiesis + spleen: spleen: relative weight) of 30 mg/kg-day and an LOEL (Mus musculus; [13]) of 5 mg/kg-day. For the same compound, the NOEL (Mus musculus; [13]) was 1.25 mg/kg-day, the LOEL (Mus musculus; [14]) was 10 mg/kg-day and the NOEL (Mus musculus; [14]) was 1 mg/kg-day. For the same compound, the LOEL (Mus musculus; [15]) was 1 mg/kg-day, the NOEL (Mus musculus; [15]) was 0.3 mg/kg-day and the LOEL (Mus musculus; [16]) was 5 mg/kg-day. It also gave an NOEL (Mus musculus; [16]) of 1 mg/kg-day, an LOEL (Mus musculus; [17]) of 5 mg/kg-day and an NOEL (Mus musculus; [17]) of 1 mg/kg-day. The LOAEL (Rattus norvegicus; duration: 1 hours, M/F, albino, Neurological: Excessive salivation + Ocular: Red material around the eyes / lacrimation + Respiratory: Red nasal discharge / dry rales) was 18600 mg/m3, the LOAEL (Rattus norvegicus; duration: 4 hours, M, CD, Body Weight: Weight loss for 1-2 days after exposure (data not shown) + Respiratory: Pulmonary edema) was 380 mg/m3 and the LOAEL (Rattus norvegicus; duration: 4 hours, M, CD, Death: LC50) was 980 mg/m3. For the same compound, the LOAEL (Rattus norvegicus; duration: 4 hours, M, CD, Gastrointestinal: Stomach irritation) was 380 mg/m3, the NOAEL (Rattus norvegicus; duration: 4 hours, M, CD, Hepatic: Liver enlargement at 810 mg/m3 / no histological alterations) was 810 mg/m3 and the LOAEL (Rattus norvegicus; [18]) was 810 mg/m3. The NOAEL (Rattus norvegicus; [18]) was 380 mg/m3 and the LOAEL (Rattus norvegicus; duration: 15 hours, F, Sprague-Dawley, Body Weight: 12% decrease weight gain on GDs 6-15) was 10 mg/m3.
